# Data as given in PubChem BioAssay (NCI).
#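 The compound was tested at five concentrations on cells cultured in 96-well plates, with a 48-hour exposure period. TGI marks complete inhibition of growth.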
# Columns and labels:
# Test in all cases: NCI-60 cell line screen, 48 h
# 786-0 renal = test system: 786-0 renal
# UACC-257 melanoma = test system: UACC-257 melanoma
# OVCAR-4 ovarian = test system: OVCAR-4 ovarian
# SF-539 CNS = test system: SF-539 CNS
# SR leukemia = test system: SR leukemia
# COLO 205 colon = test system: COLO 205 colon
# HCT-15 colon = test system: HCT-15 colon
# MDA-MB-231 breast = test system: MDA-MB-231 breast
# HCT-116 colon = test system: HCT-116 colon
# TK-10 renal = test system: TK-10 renal
# SNB-19 CNS = test system: SNB-19 CNS
# CCRF-CEM leukemia = test system: CCRF-CEM leukemia
# HCC-2998 colon = test system: HCC-2998 colon
# HOP-92 NSCLC = test system: HOP-92 NSCLC
# HOP-62 NSCLC = test system: HOP-62 NSCLC
# MDA-N = test system: MDA-N
Compound,TGI (786-0 renal) [µM],TGI (UACC-257 melanoma) [µM],TGI (OVCAR-4 ovarian) [µM],TGI (SF-539 CNS) [µM],TGI (SR leukemia) [µM],TGI (COLO 205 colon) [µM],TGI (HCT-15 colon) [µM],TGI (MDA-MB-231 breast) [µM],TGI (HCT-116 colon) [µM],TGI (TK-10 renal) [µM],TGI (SNB-19 CNS) [µM],TGI (CCRF-CEM leukemia) [µM],TGI (HCC-2998 colon) [µM],TGI (HOP-92 NSCLC) [µM],TGI (HOP-62 NSCLC) [µM],TGI (MDA-N) [µM]
Cc1cc(S(=O)(=O)NC(=NCCc2ccccc2)NN)c(S)cc1Cl,> 100,> 100,> 100,51.3,> 100,> 100,37.9,> 100,71.1,> 100,36.7,90.1,50.6,–,–,–
C/C(=N/O)c1sc(-c2nc(C)c(/C(C)=N\O)s2)nc1C,> 100,> 100,> 100,> 100,> 100,> 100,> 100,–,> 100,–,> 100,> 100,> 100,> 100,–,–
COc1ccc(/C=C2\CCC(CCN3CCOCC3)C2=O)cc1 (centres undefined),> 100,> 100,> 100,> 100,> 100,–,> 100,–,> 100,> 100,> 100,> 100,> 100,> 100,> 100,–
COC12OCCN(C)C1=CC(=O)C1(C)N=NCC12 (centres undefined),> 100,> 100,–,> 100,–,> 100,> 100,–,> 100,> 100,–,> 100,> 100,> 100,–,–
CCCCCCCCCCCCC(Br)C(C)=O (centres undefined),> 100,> 100,> 100,> 100,–,> 100,> 100,–,> 100,> 100,> 100,> 100,> 100,> 100,> 100,–
O=C(CC1(O)C(=O)Nc2c(Cl)cc(Cl)cc21)c1ccc(F)cc1 (centres undefined),38.9,65,52.6,57.4,57,43,> 100,–,> 100,> 100,> 100,–,> 100,> 100,> 100,–
CC1=CC(=O)N(n2c(-c3ccccc3)n[nH]c2=O)C1=O,> 100,> 100,> 100,> 100,–,> 100,> 100,> 100,> 100,> 100,> 100,> 100,> 100,–,> 100,–
CC1=C(C(=O)CC(=O)C(=O)Nc2ccc(C)c(C)c2)Sc2ccccc2N1,> 100,> 100,> 100,> 100,–,> 100,> 100,–,> 100,> 100,> 100,–,> 100,> 100,> 100,–
COc1ccc2c(c1)[n+]([O-])c(/C(C)=N/NC(=O)c1ccccc1O)c(C)[n+]2[O-],> 100,> 100,> 100,> 100,–,–,> 100,–,> 100,> 100,> 100,> 100,> 100,> 100,> 100,–
CC(C)OP(=O)(OC(C)C)C(=NCCN=C(NNc1ccccc1[N+](=O)[O-])P(=O)(OC(C)C)OC(C)C)NNc1ccccc1[N+](=O)[O-],> 100,84.6,> 100,> 100,–,54.9,> 100,–,> 100,> 100,> 100,70.9,> 100,> 100,> 100,–
NC(N)=NS(=O)(=O)c1ccc(NC(=O)c2cccc3c(N)c4ccccc4nc23)cc1,> 100,> 100,> 100,> 100,–,> 100,> 100,–,> 100,> 100,> 100,> 100,> 100,–,> 100,–
Cc1ccc(Sc2ccccc2N)cc1,> 100,> 100,> 100,87.9,–,> 100,> 100,–,> 100,> 100,> 100,70,> 100,54.7,29.6,–
O=C(O)CCN(CCCN(CCC(=O)O)CCC(=O)O)CCC(=O)O,> 100,–,> 100,> 100,–,> 100,> 100,–,> 100,> 100,–,> 100,> 100,> 100,> 100,–
Cc1nc2c3c(ccc2[nH]c1=O)C(=O)c1ccccc1C3=O,> 100,> 100,> 100,> 100,> 100,> 100,> 100,–,> 100,> 100,> 100,–,> 100,> 100,> 100,–
CN(/N=C\c1ccnc2ccccc12)c1ccccc1,37.7,42.6,89.4,71.6,–,39.8,39.5,–,36,98.7,> 100,45.1,–,50,81.6,–
COc1ccc(/C=C/C(=O)c2sc(-c3cccnc3)nc2C)cc1,> 100,> 100,–,65,–,> 100,> 100,–,–,> 100,–,> 100,> 100,> 100,> 100,–
O=C(Cc1nc2ccc([N+](=O)[O-])cc2[nH]c1=O)C(=O)Nc1ccccc1[N+](=O)[O-],> 100,> 100,> 100,> 100,–,> 100,> 100,–,> 100,> 100,> 100,> 100,> 100,> 100,–,–
CC(C)c1ccc(/C=C/c2cc(C(=O)NNC(=O)NC3CCCCC3)nc(=S)[nH]2)cc1,> 100,> 100,> 100,> 100,–,> 100,> 100,–,> 100,> 100,> 100,–,> 100,> 100,> 100,–

Compound,TGI (786-0 renal) [µM],TGI (UACC-257 melanoma) [µM],TGI (OVCAR-4 ovarian) [µM],TGI (SF-539 CNS) [µM],TGI (SR leukemia) [µM],TGI (COLO 205 colon) [µM],TGI (HCT-15 colon) [µM],TGI (MDA-MB-231 breast) [µM],TGI (HCT-116 colon) [µM],TGI (TK-10 renal) [µM],TGI (SNB-19 CNS) [µM],TGI (CCRF-CEM leukemia) [µM],TGI (HCC-2998 colon) [µM],TGI (HOP-92 NSCLC) [µM],TGI (HOP-62 NSCLC) [µM],TGI (MDA-N) [µM]
O=C(O)c1ccc([C@@H]2C(=O)N(O)[C@@H]3C=CC[C@@H]32)cc1,> 100,> 100,–,> 100,–,> 100,> 100,–,–,> 100,> 100,> 100,> 100,–,> 100,–
O=C(O)c1c2c(cc3c(=O)cc(-c4ccccc4)oc13)CCCC2,> 100,> 100,> 100,> 100,–,> 100,> 100,–,> 100,> 100,> 100,> 100,> 100,> 100,> 100,–
O=[N+]([O-])C=C1c2ccccc2-c2ccccc21,30.3,33.7,28.2,31.3,28.5,3.33,38.7,–,17.5,32.3,51.8,80.8,30.6,–,31.3,–
CC(=O)NNc1nc(C)c(C(=O)/C=C/c2ccc(Cl)c(Cl)c2)s1,> 100,> 100,–,> 100,–,> 100,> 100,–,–,> 100,> 100,> 100,> 100,> 100,> 100,–
CC(C)C(Sc1nc(-c2ccccc2)c(-c2ccccc2)[nH]1)c1n[nH]c(=S)n1-c1ccccc1 (centres undefined),> 100,74.9,> 100,40.4,92.3,62.1,> 100,–,> 100,> 100,56.8,64.5,46,72,> 100,–
CCOC(=O)C1SC(=Nc2ccc(Cl)cc2Cl)N=C1C (centres undefined),> 100,> 100,70.1,> 100,–,> 100,> 100,–,> 100,> 100,> 100,–,> 100,62.3,> 100,–
CCN(CC)Cc1cc(Nc2ccnc3ccc4nn(C)nc4c23)ccc1O,49.5,27.8,37,26.5,> 100,19.1,43.8,–,21.5,75.6,> 100,> 100,26.4,–,36.8,–
COc1cc(C2c3cc4c(cc3OC(NCCO)C2C)OCO4)cc(OC)c1O (centres undefined),> 100,–,> 100,42.2,–,84.2,46.9,> 100,> 100,> 100,> 100,–,21.8,> 100,–,4.56
C/C=C\C(CC(=O)OC)CC(=O)N(CCC1CN(S(=O)(=O)C(F)(F)F)c2ccccc21)Cc1ccc(OC)cc1OC (centres undefined),> 100,> 100,> 100,> 100,–,> 100,> 100,> 100,> 100,> 100,> 100,–,> 100,> 100,> 100,> 100
Cc1ccc(-c2nnc3s/c(=C\c4ccc(N(C)C)cc4)c(=O)n23)cc1,> 100,77.5,> 100,> 100,–,> 100,–,–,> 100,> 100,> 100,> 100,> 100,> 100,> 100,–
O=C1C(c2ccccc2)=C(c2ccccc2)C(c2ccc(Sc3ccc(C4=C(c5ccccc5)C(=O)C(c5ccccc5)=C4c4ccccc4)cc3)cc2)=C1c1ccccc1,> 100,> 100,> 100,> 100,> 100,> 100,> 100,–,> 100,> 100,> 100,> 100,–,> 100,> 100,–
NC(CCCCNCc1ccccc1)C(=O)O (centres undefined),> 100,> 100,> 100,> 100,–,> 100,> 100,–,> 100,> 100,> 100,> 100,> 100,> 100,> 100,–
c1ccc2c(CNCCCCCCCCNCc3cccc4ccccc34)cccc2c1,3.31,3.29,5.28,3.04,–,3.43,3.38,–,3.05,5.53,–,5.21,–,9.92,30.1,–
COc1ccccc1NC(=O)CC(=O)N1N=C(c2ccccc2)C(N=Nc2ccc(Cl)cc2)C1=O (centres undefined),37,> 100,56.6,> 100,> 100,> 100,> 100,–,> 100,52.3,> 100,–,> 100,–,48.6,–
O=C(O)C12CCC(CC1=O)C2 (centres undefined),> 100,> 100,> 100,–,> 100,> 100,> 100,–,–,> 100,> 100,> 100,–,> 100,> 100,–
COc1cc(CNc2cnc3ccc(N)cc3n2)cc(OC)c1OC,> 100,> 100,> 100,> 100,–,> 100,> 100,–,> 100,> 100,> 100,> 100,> 100,> 100,> 100,–
COC(=O)C(=O)C(/C(=N/N)C(=O)Nc1ccccc1C(N)=O)c1nc2ccc([N+](=O)[O-])cc2[nH]c1=O (centres undefined),> 100,> 100,> 100,> 100,> 100,> 100,> 100,–,> 100,> 100,> 100,> 100,> 100,–,> 100,–
